From US20240398811A1, “PRC2 INHIBITORS FOR USE IN TREATING BLOOD DISORDERS” (ORIC Pharmaceuticals, Inc., priority 2021, published 2024) come the findings set out here.

In this experiment the target is purified human, His-tagged PRC2 complex (Homo sapiens (Human), UniProt O75530). Nature of the experiment: Hot Spot HMT assay, inhibition of PRC2 enzymatic activity. It counts as biochemical. Particulars: 10 nM PRC2 complex, 1 μM 3H-SAM, core histone H3, 10-point dose-response. Put shortly: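 Five-subunit PRC2 complex (EZH2, EED, SUZ12, AEBP2, RbAp48; 10 nM) preincubated 20 min at 30° C with compound (top 1.0 μM) and 0.05 mg/ml core histone H3 in Tris-HCl, 1% DMSO. Started with 1 μM [3H]SAM, 1 hr at 30° C; tritiated H3 measured by filter binding and scintillation.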
purified human, His-tagged PRC2 complex, sequence (O75530 whole entry): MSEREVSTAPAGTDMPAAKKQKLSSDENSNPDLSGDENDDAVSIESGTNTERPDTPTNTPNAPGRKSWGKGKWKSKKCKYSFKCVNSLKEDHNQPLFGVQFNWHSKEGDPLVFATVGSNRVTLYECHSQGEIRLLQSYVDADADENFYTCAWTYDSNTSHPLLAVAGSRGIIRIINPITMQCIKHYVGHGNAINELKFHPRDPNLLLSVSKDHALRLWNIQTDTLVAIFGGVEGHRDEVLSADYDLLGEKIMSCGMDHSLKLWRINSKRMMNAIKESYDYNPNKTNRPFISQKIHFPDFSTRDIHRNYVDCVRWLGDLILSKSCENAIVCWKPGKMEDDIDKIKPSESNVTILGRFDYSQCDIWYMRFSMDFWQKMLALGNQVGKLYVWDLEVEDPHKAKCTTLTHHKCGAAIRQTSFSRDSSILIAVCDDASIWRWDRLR
purified human, His-tagged PRC2 complex, sequence (Q15910 whole entry partner): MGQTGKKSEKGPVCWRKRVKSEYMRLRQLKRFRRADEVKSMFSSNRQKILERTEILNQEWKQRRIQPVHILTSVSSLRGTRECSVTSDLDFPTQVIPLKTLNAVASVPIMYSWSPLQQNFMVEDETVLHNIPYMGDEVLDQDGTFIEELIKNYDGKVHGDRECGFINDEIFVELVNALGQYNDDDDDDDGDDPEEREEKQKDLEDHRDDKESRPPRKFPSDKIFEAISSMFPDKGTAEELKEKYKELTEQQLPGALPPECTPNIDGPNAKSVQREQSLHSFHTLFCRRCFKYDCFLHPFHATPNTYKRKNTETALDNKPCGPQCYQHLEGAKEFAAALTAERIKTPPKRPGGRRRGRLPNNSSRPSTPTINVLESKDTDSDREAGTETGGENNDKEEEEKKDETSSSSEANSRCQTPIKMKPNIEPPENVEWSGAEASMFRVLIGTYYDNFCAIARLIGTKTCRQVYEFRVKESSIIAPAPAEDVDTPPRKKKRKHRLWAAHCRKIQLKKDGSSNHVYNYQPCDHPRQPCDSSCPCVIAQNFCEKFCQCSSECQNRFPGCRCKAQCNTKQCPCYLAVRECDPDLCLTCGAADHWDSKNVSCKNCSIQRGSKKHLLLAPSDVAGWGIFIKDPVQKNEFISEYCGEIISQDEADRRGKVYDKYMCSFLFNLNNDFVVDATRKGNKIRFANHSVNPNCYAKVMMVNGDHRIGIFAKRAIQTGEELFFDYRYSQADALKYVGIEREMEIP
purified human, His-tagged PRC2 complex, sequence (Q15022 whole entry partner): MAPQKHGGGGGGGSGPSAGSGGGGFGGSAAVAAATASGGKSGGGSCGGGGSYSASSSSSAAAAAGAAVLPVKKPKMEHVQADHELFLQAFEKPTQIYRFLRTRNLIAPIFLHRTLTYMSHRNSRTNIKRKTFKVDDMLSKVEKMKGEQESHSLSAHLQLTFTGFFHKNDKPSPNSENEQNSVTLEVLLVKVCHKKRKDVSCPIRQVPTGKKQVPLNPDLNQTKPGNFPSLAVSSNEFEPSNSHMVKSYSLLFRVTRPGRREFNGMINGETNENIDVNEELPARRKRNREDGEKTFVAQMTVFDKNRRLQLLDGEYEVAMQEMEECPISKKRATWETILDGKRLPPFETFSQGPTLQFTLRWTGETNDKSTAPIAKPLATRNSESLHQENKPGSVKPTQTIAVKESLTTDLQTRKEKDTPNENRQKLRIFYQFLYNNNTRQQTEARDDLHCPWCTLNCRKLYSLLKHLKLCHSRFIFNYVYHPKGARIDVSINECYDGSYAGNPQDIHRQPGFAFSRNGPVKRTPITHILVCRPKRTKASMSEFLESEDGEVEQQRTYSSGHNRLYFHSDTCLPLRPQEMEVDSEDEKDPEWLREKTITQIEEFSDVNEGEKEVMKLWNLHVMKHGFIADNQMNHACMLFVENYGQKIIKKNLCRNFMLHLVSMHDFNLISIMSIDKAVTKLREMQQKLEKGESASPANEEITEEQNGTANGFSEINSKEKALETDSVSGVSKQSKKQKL
purified human, His-tagged PRC2 complex, sequence (Q6ZN18 whole entry partner): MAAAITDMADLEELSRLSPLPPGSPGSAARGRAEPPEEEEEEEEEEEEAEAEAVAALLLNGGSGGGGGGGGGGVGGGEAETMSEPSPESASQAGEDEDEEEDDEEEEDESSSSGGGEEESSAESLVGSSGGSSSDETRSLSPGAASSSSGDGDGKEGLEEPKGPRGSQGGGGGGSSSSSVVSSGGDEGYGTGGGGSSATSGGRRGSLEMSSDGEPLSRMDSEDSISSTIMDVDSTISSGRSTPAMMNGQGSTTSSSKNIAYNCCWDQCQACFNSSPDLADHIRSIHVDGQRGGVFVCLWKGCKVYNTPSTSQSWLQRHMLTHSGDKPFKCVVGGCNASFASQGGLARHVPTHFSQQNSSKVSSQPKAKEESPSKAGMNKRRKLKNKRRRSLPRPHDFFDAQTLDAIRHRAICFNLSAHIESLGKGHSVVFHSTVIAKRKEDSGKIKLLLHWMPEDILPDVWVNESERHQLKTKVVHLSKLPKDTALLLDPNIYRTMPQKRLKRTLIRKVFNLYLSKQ
purified human, His-tagged PRC2 complex, sequence (Q09028 whole entry partner): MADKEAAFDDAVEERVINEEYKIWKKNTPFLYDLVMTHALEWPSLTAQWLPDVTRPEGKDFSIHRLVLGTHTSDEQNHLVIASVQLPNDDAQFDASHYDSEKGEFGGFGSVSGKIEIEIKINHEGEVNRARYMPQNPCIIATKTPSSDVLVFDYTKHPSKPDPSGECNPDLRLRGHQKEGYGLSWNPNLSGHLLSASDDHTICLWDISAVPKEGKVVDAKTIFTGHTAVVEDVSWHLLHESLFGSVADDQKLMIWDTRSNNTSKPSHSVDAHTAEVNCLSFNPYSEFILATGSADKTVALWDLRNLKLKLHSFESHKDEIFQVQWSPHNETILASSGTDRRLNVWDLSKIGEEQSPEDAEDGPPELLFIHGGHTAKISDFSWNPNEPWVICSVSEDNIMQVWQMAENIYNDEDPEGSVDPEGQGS
On to `N#Cc1cn2c(NCc3c(F)ccc4c3CCO4)ncc(-c3ccc(CN4CCCC4)cc3)c2n1` [Example 74, 5-(((5-fluoro-2,3-dihydrobenzofuran-4-yl)methyl)amino)-8-(4-(pyrrolidin-1-ylmethyl)phenyl)imidazo[1,2-c]pyrimidine-2-carbonitrile], for which the IC50 (commonly the concentration at which inhibition is half-maximal) is under 100 nM.
The result for `Cc1cc(-c2cnc(NCc3cccc4c3CCO4)n3cc(C(=O)O)nc23)n(C)n1` [Example 10, 5-(((2,3-dihydrobenzofuran-4-yl)methyl)amino)-8-(1,3-dimethyl-1H-pyrazol-5-yl)imidazo[1,2-c]pyrimidine-2-carboxylic acid] reads under 100 nM.
The result for `CN(C)Cc1ccc(-c2cnc(NCc3c(F)ccc4c3CCO4)n3cc(C#N)nc23)cc1C#N` [Example 201, 8-(3-cyano-4-((dimethylamino)methyl)phenyl)-5-(((5-fluoro-2,3-dihydrobenzofuran-4-yl)methyl)amino)imidazo[1,2-c]pyrimidine-2-carbonitrile] reads under 100 nM.
The result for `Cn1nc(C#N)cc1-c1cnc(NCc2c(F)ccc3c2CCO3)n2cc(C#N)nc12` [Example 212, 8-(3-cyano-1-methyl-1H-pyrazol-5-yl)-5-(((5-fluoro-2,3-dihydrobenzofuran-4-yl)methyl)amino)imidazo[1,2-c]pyrimidine-2-carbonitrile] reads under 100 nM; that for `N#Cc1cn2c(NCc3c(F)ccc4c3CCO4)ncc(-c3ccc(C(=O)O)nc3)c2n1` [Example 215, 5-(2-cyano-5-(((5-fluoro-2,3-dihydrobenzofuran-4-yl)methyl)amino)imidazo[1,2-c]pyrimidin-8-yl)picolinic Acid], under 100 nM.
Consider `CN(C)C(=O)c1cc(-c2cnc(NCc3c(F)ccc4c3CCO4)n3cc(C#N)nc23)n(C)n1` [Example 170, 5-(2-cyano-5-(((5-fluoro-2,3-dihydrobenzofuran-4-yl)methyl)amino)imidazo[1,2-c]pyrimidin-8-yl)-N,N,1-trimethyl-1H-pyrazole-3-carboxamide], for which the IC50 was under 100 nM.
The result for `N#Cc1cn2c(NCc3c(F)ccc4c3CCO4)ncc(-c3ccc(C4CC4)nc3)c2n1` [Example 116, 8-(6-cyclopropylpyridin-3-yl)-5-(((5-fluoro-2,3-dihydrobenzofuran-4-yl)methyl)amino)imidazo[1,2-c]pyrimidine-2-carbonitrile] reads under 100 nM.
The value for `CN(C)CCn1nccc1-c1cnc(NCc2c(F)ccc3c2CCO3)n2cc(C#N)nc12` [Example 230, 8-(1-(2-(dimethylamino)ethyl)-1H-pyrazol-5-yl)-5-(((5-fluoro-2,3-dihydrobenzofuran-4-yl)methyl)amino)imidazo[1,2-c]pyrimidine-2-carbonitrile] was under 100 nM; that for `CN1CCc2cc(-c3cnc(NCc4c(F)ccc5c4CCO5)n4cc(C#N)nc34)ccc2C1` [Example 159, 5-(((5-fluoro-2,3-dihydrobenzofuran-4-yl)methyl)amino)-8-(2-methyl-1,2,3,4-tetrahydroisoquinolin-6-yl)imidazo[1,2-c]pyrimidine-2-carbonitrile] was 100 to 500 nM; that for `Cc1cc(C(=O)N(C)C)ccc1-c1cnc(NCc2c(F)ccc3c2CCO3)n2cc(C#N)nc12` [Example 44, 4-(2-cyano-5-(((5-fluoro-2,3-dihydrobenzofuran-4-yl)methyl)amino)imidazo[1,2-c]pyrimidin-8-yl)-N,N,3-trimethylbenzamide] was under 100 nM.
The result for `N#Cc1cn2c(NCc3c(F)ccc4c3CCO4)ncc(-c3ccc(CN4CC5CC5C4)cc3)c2n1` (centres unmarked) [Example 52, 8-(4-((3-azabicyclo[3.1.0]hexan-3-yl)methyl)phenyl)-5-(((5-fluoro-2,3-dihydrobenzofuran-4-yl)methyl)amino)imidazo[1,2-c]pyrimidine-2-carbonitrile] reads under 100 nM; that for `Cc1nc(CN(C)C)ccc1-c1cnc(NCc2c(F)ccc3c2CCO3)n2cc(C#N)nc12` [Example 152, 8-(6-((dimethylamino)methyl)-2-methylpyridin-3-yl)-5-(((5-fluoro-2,3-dihydrobenzofuran-4-yl)methyl)amino)imidazo[1,2-c]pyrimidine-2-carbonitrile], 100 to 500 nM; that for `N#Cc1cn2c(NCc3c(F)ccc4c3CCO4)ncc(-c3ccc(CN4CC(F)(F)C4)cc3)c2n1` [Example 51, 8-(4-((3,3-difluoroazetidin-1-yl)methyl)phenyl)-5-(((5-fluoro-2,3-dihydrobenzofuran-4-yl)methyl)amino)imidazo[1,2-c]pyrimidine-2-carbonitrile], under 100 nM.
Compound `COCCn1cc(-c2cnc(NCc3c(F)ccc4c3CCO4)n3cc(C#N)nc23)cn1` [Example 117, 5-(((5-fluoro-2,3-dihydrobenzofuran-4-yl)methyl)amino)-8-(1-(2-methoxyethyl)-1H-pyrazol-4-yl)imidazo[1,2-c]pyrimidine-2-carbonitrile] showed a half-inhibitory concentration (IC50) of 100 to 500 nM.
The result for `Cc1cc(C(=O)N(C)C)ncc1-c1cnc(NCc2c(F)ccc3c2CCO3)n2cc(C#N)nc12` [Example 76, 5-(2-cyano-5-(((5-fluoro-2,3-dihydrobenzofuran-4-yl)methyl)amino)imidazo[1,2-c]pyrimidin-8-yl)-N,N,4-trimethylpicolinamide] reads under 100 nM; that for `N#Cc1cn2c(NCc3c(F)ccc4c3CCO4)ncc(-c3ccc(CN4CCC(F)(F)C4)cc3)c2n1` [Example 55, 8-(4-((3,3-difluoropyrrolidin-1-yl)methyl)phenyl)-5-(((5-fluoro-2,3-dihydrobenzofuran-4-yl)methyl)amino)imidazo[1,2-c]pyrimidine-2-carbonitrile], under 100 nM.
The value for `CNC(=O)c1cc(-c2cnc(NCc3c(F)ccc4c3CCO4)n3cc(C#N)nc23)n(C)n1` [Example 208, 5-(2-cyano-5-(((5-fluoro-2,3-dihydrobenzofuran-4-yl)methyl)amino)imidazo[1,2-c]pyrimidin-8-yl)-N,1-dimethyl-1H-pyrazole-3-carboxamide] was under 100 nM; that for `Cn1nccc(-c2cnc(NCc3c(F)ccc4c3CCO4)n3cc(C#N)nc23)c1=O` [Example 194, 5-(((5-fluoro-2,3-dihydrobenzofuran-4-yl)methyl)amino)-8-(2-methyl-3-oxo-2,3-dihydropyridazin-4-yl)imidazo[1,2-c]pyrimidine-2-carbonitrile] was 100 to 500 nM; that for `Cc1ccc(-c2cnc(NCc3c(F)ccc4c3CCO4)n3cc(C#N)nc23)cc1` [Example 175, 5-(((5-fluoro-2,3-dihydrobenzofuran-4-yl)methyl)amino)-8-(p-tolyl)imidazo[1,2-c]pyrimidine-2-carbonitrile] was 100 to 500 nM.
The result for `Cn1nc(C2CC2)cc1-c1cnc(NCc2c(F)ccc3c2CCO3)n2cc(C#N)nc12` [Example 144, 8-(3-cyclopropyl-1-methyl-1H-pyrazol-5-yl)-5-(((5-fluoro-2,3-dihydrobenzofuran-4-yl)methyl)amino)imidazo[1,2-c]pyrimidine-2-carbonitrile] reads under 100 nM; that for `CN(C)Cc1c(F)cc(-c2cnc(NCc3c(F)ccc4c3CCO4)n3cc(C#N)nc23)cc1F` [Example 149, 8-(4-((dimethylamino)methyl)-3,5-difluorophenyl)-5-(((5-fluoro-2,3-dihydrobenzofuran-4-yl)methyl)amino)imidazo[1,2-c]pyrimidine-2-carbonitrile], 100 to 500 nM.
As for `N#Cc1cn2c(NCc3c(F)ccc4c3CCO4)ncc(-c3ccc(C4COCCN4)cc3)c2n1` (centres unmarked) [Example 225, 5-(((5-fluoro-2,3-dihydrobenzofuran-4-yl)methyl)amino)-8-(4-(morpholin-3-yl)phenyl)imidazo[1,2-c]pyrimidine-2-carbonitrile], the IC50 was under 100 nM.
The value for `Cn1cccc(-c2cnc(NCc3c(F)ccc4c3CCO4)n3cc(C#N)nc23)c1=O` [Example 156, 5-(((5-fluoro-2,3-dihydrobenzofuran-4-yl)methyl)amino)-8-(1-methyl-2-oxo-1,2-dihydropyridin-3-yl)imidazo[1,2-c]pyrimidine-2-carbonitrile] was 100 to 500 nM; that for `CN(C)CCOc1ccc(-c2cnc(NCc3c(F)ccc4c3CCO4)n3cc(C#N)nc23)cc1` [Example 189, 8-(4-(2-(dimethylamino)ethoxy)phenyl)-5-(((5-fluoro-2,3-dihydrobenzofuran-4-yl)methyl)amino)imidazo[1,2-c]pyrimidine-2-carbonitrile] was 100 to 500 nM.
The result for `N#Cc1cn2c(NCc3c(F)ccc4c3CCO4)ncc(-c3ccncn3)c2n1` [Example 57, 5-(((5-fluoro-2,3-dihydrobenzofuran-4-yl)methyl)amino)-8-(pyrimidin-4-yl)imidazo[1,2-c]pyrimidine-2-carbonitrile] reads under 100 nM; that for `Cc1nn(C(C)C)cc1-c1cnc(NCc2c(F)ccc3c2CCO3)n2cc(C(=O)O)nc12` [Example 5, 5-(((5-fluoro-2,3-dihydrobenzofuran-4-yl)methyl)amino)-8-(1-isopropyl-3-methyl-1H-pyrazol-4-yl)imidazo[1,2-c]pyrimidine-2-carboxylic acid], under 100 nM.
On to `Cc1c(-c2cnc(NCc3c(F)ccc4c3CCO4)n3cc(C(=O)O)nc23)cnn1C(C)C` [Example 8, 5-(((5-fluoro-2,3-dihydrobenzofuran-4-yl)methyl)amino)-8-(1-isopropyl-5-methyl-1H-pyrazol-4-yl)imidazo[1,2-c]pyrimidine-2-carboxylic acid], for which the IC50 was under 100 nM.
Take `N#Cc1cn2c(NCc3c(F)ccc4c3CCO4)ncc(-c3ccc(CN4CCOCC4)cc3)c2n1` [Example 75, 5-(((5-fluoro-2,3-dihydrobenzofuran-4-yl)methyl)amino)-8-(4-(morpholinomethyl)phenyl)imidazo[1,2-c]pyrimidine-2-carbonitrile]: the half-inhibitory concentration (IC50) is under 100 nM.
The result for `CN(C)S(=O)(=O)c1ccc(-c2cnc(NCc3c(F)ccc4c3CCO4)n3cc(C#N)nc23)cc1` [Example 58, 4-(2-cyano-5-(((5-fluoro-2,3-dihydrobenzofuran-4-yl)methyl)amino)imidazo[1,2-c]pyrimidin-8-yl)-N,N-dimethylbenzenesulfonamide] reads under 100 nM.
